According to patent US11584727B2, “2-thioxothiazolidin-4-one derivatives active as transthyretin ligands and uses thereof” (BSIM Therapeutics, S.A., priority 2014, dated 2023):

Experiments:
albumin (ALB) = molecular target: T1, albumin (ALB) (Homo sapiens, UniProt P02768); assay: Thyroxine (T4) binding competition by gel electrophoresis in plasma, albumin band; conditions: [125I]T4, in presence of compound
T1 construct: from tissue; host or cells: human plasma
Protocol: (§1) Briefly, upon incubation of human plasma in the presence of the test compounds and radio-labeled T4 ([125I]T4), the samples are subjected to native PAGE. After electrophoresis, the gels are dried, subjected to phosphor imaging, and the intensity of the protein bands is then compared. […] The intensity of the bands decreases, as compared to the control samples (absence of compound), if the compound binds to the protein(s) competing with T4.
(§2) FIG. 24 presents the results of these experiments, where the bands in the gel correspond to the major T4 binding plasma proteins. […] The results were analyzed by calculation of the TTR/total (TTR+ALB+TBG) ratio for each sample collected at different time points. The displacement of T4 from TTR is calculated and plotted as the difference between the average of ratios of TTR/total protein for each control sample and the average of the ratios of TTR/total protein. […]
(§3) Five (5) μL of human plasma plus 0.25-0.5 μL of [125I]T4 (specific radioactivity 1250 μCi/m; concentration 320 μCi/mL; Perkin Elmer, Boston, Mass., U.S.A.) plus 5 μL of PBS with glycerol 50% are incubated for 1 hour at room temperature (RT) and the samples are subjected to native PAGE. After electrophoresis, the gels are dried, subjected to phosphor imaging (Typhoon 8600; Molecular Diagnostics, Amersham Biosciences), and analyzed using the ImageQuant program version 5.1. […]

[1] = HepG2 cell viability, resazurin reduction assay; type: cell-based; conditions: human, HepG2 hepatoma cells, approximately 72 hours incubation, read-out: inhibitory dose (ID50), cell viability
Description: Cell viability of HepG2 hepatoma cells was quantified in order to assess the toxicity of the compounds at increasing concentrations. The used assay is described in detail in the “Experimental Evaluation of Cytotoxicity of Compounds using Cell-based Assays” section in “Materials and Methods”. This is a relevant assessment not just to discard potential concerns of liver damage (which is a problem reported for many drugs) but also because of the long-term nature of the treatments that patients suffering from TTR-mediated amyloidoses need to undertake.
Adherent human hepatoma cells HepG2 were cultured in DMEM (Dulbecco's Modified Eagle's Medium) with 10% fetal bovine serum (FBS), 100 U/mL penicillin, […] streptomycin, and 1 mM sodium pyruvate. The cells were grown in 75 cm^2 culture flasks at 37° C., in an atmosphere of 5% CO2, and subcultured twice a week using a trypsin-EDTA solution.
Upon 3 to 4 days of growth and reaching approximately 90% confluence, HepG2 cells were plated in 96-well microplates with cell density of 12×10^3 cells/well and in a volume of 100 μL per well.
The compounds are dissolved in DMSO and subsequently diluted in DMEM (in 9 intermediate […] concentrations). After adhesion of HepG2 cells to the microplates, […] 100 μL of each solution of intermediate compound concentration were added to each well (in quadruplicate). Positive controls were done with 10 wells containing only cells; solvent controls resulted from the analysis of the three highest DMSO concentrations tested and were carried out in triplicate.
After addition of the compounds to the cells, the microplates were incubated for approximately 72 hours at 37° C. in an atmosphere of 5% CO2 until the cell viability assay was performed.
The cell viability of HepG2 cells in the presence of test compounds was assessed by the resazurin reduction assay. Resazurin is a redox indicator that is converted into resorufin through reduction reactions of metabolically active cells. In the oxidized form it presents a purplish blue color, while the reduced form presents a purple-pink color.
A stock solution of 0.01% resazurin in PBS is diluted 1:10 in incomplete RPMI 1640 cell medium (without addition of antibiotics and FBS). After washing the cells with 200 μL PBS containing Ca^2+ and Mg^2+, 200 μL of resazurin 0.001% are added to the wells. Control runs with incomplete RPMI 1640 medium only and (without cells) are done in triplicate. […]
To quantify the reduction of resazurin to resorufin, microplate absorbance readings were taken at two wavelengths, 540 nm (reduced form) and 630 nm (oxidized form), in a Biotek spectrophotometer microplate reader. The percentage of viable cells at each compound concentration is determined using the formula: […]

[2] = molecular target: T2, thyroxine-binding globulin (TBG) (Homo sapiens, UniProt P05543); assay: Thyroxine (T4) binding competition by gel electrophoresis in plasma, TBG band; conditions: [125I]T4, in presence of compound
T2 construct: from tissue; host or cells: human plasma
T2 sequence (P05543 21-415): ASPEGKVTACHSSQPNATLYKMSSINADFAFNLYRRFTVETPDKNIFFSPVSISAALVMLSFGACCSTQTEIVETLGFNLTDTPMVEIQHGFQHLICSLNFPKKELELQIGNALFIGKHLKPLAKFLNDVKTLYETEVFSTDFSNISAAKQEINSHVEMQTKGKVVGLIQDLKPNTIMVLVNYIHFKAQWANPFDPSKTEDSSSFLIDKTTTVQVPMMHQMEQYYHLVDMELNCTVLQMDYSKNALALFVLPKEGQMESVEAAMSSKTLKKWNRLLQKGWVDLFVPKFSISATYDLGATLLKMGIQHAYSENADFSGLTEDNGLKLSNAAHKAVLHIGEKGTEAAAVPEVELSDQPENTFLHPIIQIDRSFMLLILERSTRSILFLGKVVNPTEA
Protocol: as §1, §2, §3

T1 sequence (P02768 25-609): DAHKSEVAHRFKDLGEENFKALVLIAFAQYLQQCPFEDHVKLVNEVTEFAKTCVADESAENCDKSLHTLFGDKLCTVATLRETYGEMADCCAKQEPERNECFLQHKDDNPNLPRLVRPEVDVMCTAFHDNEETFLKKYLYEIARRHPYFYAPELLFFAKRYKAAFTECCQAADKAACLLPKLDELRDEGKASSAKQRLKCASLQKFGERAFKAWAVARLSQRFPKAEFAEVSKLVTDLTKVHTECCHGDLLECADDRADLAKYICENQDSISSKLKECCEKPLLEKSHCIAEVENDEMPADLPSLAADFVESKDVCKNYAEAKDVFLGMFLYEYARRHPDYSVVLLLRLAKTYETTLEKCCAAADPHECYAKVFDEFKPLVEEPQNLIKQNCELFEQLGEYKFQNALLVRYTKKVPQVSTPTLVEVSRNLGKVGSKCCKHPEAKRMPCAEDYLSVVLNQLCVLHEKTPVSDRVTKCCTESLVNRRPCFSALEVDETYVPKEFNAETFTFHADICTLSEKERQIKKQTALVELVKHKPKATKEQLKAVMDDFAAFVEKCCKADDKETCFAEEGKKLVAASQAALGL

| T4 bound to ALB (albumin (ALB)) [%] | T4 bound to TBG [2] [%] | SMILES | IC50 at 72 h [1] [µM] |
| --- | --- | --- | --- |
| 31.5 | 54.3 | COc1cc(/C=C2\SC(=S)N(CC(=O)O)C2=O)cc(Cl)c1O [AT50-A00 (Z), (Z)-3-hydroxycarbonylmethyl-5-(3′-chloro-4′-hydroxy-5′-methoxyphenylmethylidene)-2-thioxothiazolidin-4-one] | > 400 |
| 32.0 | 53.6 | O=C(O)c1ccc2nc(-c3cc(Cl)cc(Cl)c3)oc2c1 [Tafamidis, reference compound] | ~250 |
